Test results published in patent US7041169B2, “Methods of generating and screening for high free energy forms in capillaries” (S.S.C.I., Inc., priority 2000, dated 2006).
Converted amounts (≈) assume the structure as drawn. “Also recorded” adds a separate entry of the source.

Legend:
Assay type in all cases: physicochemical
[1] = Solubility of ROY in ethanol; settings: 25 °C, organic solvent or mixture, 25 degrees C
Procedure: For this example, a solution of ROY in ethanol was prepared. A supersaturated solution of 160.3 mg of ROY in 2 mL of ethanol was prepared, having a supersaturation ratio of 6.7.

[2] = Solubility of ROY in water
[3] = Solidification of WAY from ethanol and aqueous ethanol in capillary tubes at different temperatures (Example 6, Table 1)
Procedure: For this example, solutions of the WAY compound were prepared at a supersaturation ratio of 2 in ethanol and in 10% aqueous ethanol. Each of these WAY solutions was introduced into twenty capillary tubes having a stated inner diameter of 0.5–0.6 mm and which had been washed by soaking in distilled water for about 10 minutes, rinsing with ethanol, and drying for at least an hour at 65 degrees C. The capillary tubes were maintained at room temperature and pressure (about 23 degrees C. and at about 45% relative humidity) and were observed periodically.
Solidification of the WAY compound from ethanol and aqueous ethanol solutions was also done at different temperatures (reported below in degrees Celsius). Table 1 summarizes the results of seven sets of twenty capillary tubes under set different sets of conditions.

[4] = Solidification of WAY from supersaturated ethanol solution in 95 capillary tubes (Example 5)
Procedure: A supersaturated solution of WAY in ethanol was prepared, having a supersaturation ratio of 2. The WAY solution was introduced into 95 capillary tubes. The tubes were left open at both ends and allowed to evaporate to the atmosphere. After about 25 minutes, sixty-two capillary tubes contained crystals. […] After about one hour, four additional capillary tubes contained white crystals, nine additional capillary tubes contained yellow crystals, and one additional capillary tube contained a mixture of white and yellow crystals.

Structure (SMILES) | solubility [1] [mg/mL] | solubility in water [2] | Result (solid forms in 20 capillary tubes) ([3]; Solvent Aqueous ethanol, Temp 38 degrees Celsius, Time 0:50, tubes with mixed yellow and white crystals) | Result (solid forms in 20 capillary tubes) ([3]; Solvent Aqueous ethanol, Temp 38 degrees Celsius, Time 0:50, tubes with no solids formed) | Result (solid forms in 20 capillary tubes) ([3]; Solvent Aqueous ethanol, Temp 38 degrees Celsius, Time 1:13, tubes with mixed yellow and white crystals) | Result (solid forms in 20 capillary tubes) ([3]; Solvent Aqueous ethanol, Temp 38 degrees Celsius, Time 1:13, tubes with no solids formed) | Result (solid forms in 20 capillary tubes) ([3]; Solvent Aqueous ethanol, Temp 38 degrees Celsius, Time 1:42, tubes with mixed yellow and white crystals) | Result (solid forms in 20 capillary tubes) ([3]; Solvent Aqueous ethanol, Temp 38 degrees Celsius, Time 1:42, tubes with no solids formed) | Result (solid forms in 20 capillary tubes) ([3]; Solvent Aqueous ethanol, Temp −2 degrees Celsius, Time 4:35, tubes with white crystals) | Result (solid forms in 20 capillary tubes) ([3]; Solvent Aqueous ethanol, Temp −2 degrees Celsius, Time 4:35, tubes with yellow crystals) | Result (solid forms in 20 capillary tubes) ([3]; Solvent Ethanol, Temp 38 degrees Celsius, Time 0:50, tubes with mixed white and yellow crystals) | Result (solid forms in 20 capillary tubes) ([3]; Solvent Ethanol, Temp 38 degrees Celsius, Time 0:50, tubes with no solids formed) | Result (solid forms in 20 capillary tubes) ([3]; Solvent Ethanol, Temp 38 degrees Celsius, Time 1:43, tubes with mixed yellow and white crystals) | Result (solid forms in 20 capillary tubes) ([3]; Solvent Ethanol, Temp 38 degrees Celsius, Time 1:43, tubes with no solids formed) | Result (solid forms in 20 capillary tubes) ([3]; Solvent Ethanol, Temp −2 degrees Celsius, Time 4, tubes with white and yellow crystals) | Result (solid forms in 20 capillary tubes) ([3]; Solvent Ethanol, Temp −2 degrees Celsius, Time 4, tubes with white crystals) | solid forms found in capillary tubes ([4]; after about 25 minutes, 95 tubes, sixty-two with crystals) | persistence of high free energy yellow crystals in capillary tubes ([4]; overnight (about thirteen hours and forty minutes), room temperature)
Cc1cc(C#N)c(Nc2ccccc2[N+](=O)[O-])s1 [ROY, 5-methyl-2-[(2-nitrophenyl)amino]-3-thiophenecarbonitrile] | ~12 (≈ 46.3 mM) | generally insoluble in water |  |  |  |  |  |  |  |  |  |  |  |  |  |  |  | 
CC(=O)Nc1ccc(C)cc1[N+](=O)[O-] [WAY, 4-methyl-2-nitro-acetanilide] |  |  | 2/20: mixture of yellow | 18/20: no solids formed | 5/20: mixture of yellow | 15/20: no solids formed | 19/20: mixture of yellow | 1/20: no solids formed | 1/20: white crystals | 19/20: yellow crystals | 16/20: mixture of white | 4/20: no solids formed | 17/20: mixture of yellow | 3/20: no solids formed | 2/20: white and yellow | 10/20: white crystals | forty contained white crystals; also recorded: twenty-two contained yellow crystals | nineteen of those tubes had transformed to white crystals; also recorded: six still contained yellow crystals
